What follows are compounds tested against T1, EP2 receptor (Homo sapiens, UniProt P43116) (assay: EP2 potency assay (cAMP TR-FRET, LANCE Ultra cAMP kit) in transfected CHO-K1 cells stimulated with PGE2 at EC80). Settings: Table (IV), EP2 antagonism, CHO-K1 cells expressing EP2, PGE2 at EC80.
T1 construct: expressed in transfected cells; host or cells: CHO-K1 cells (ATCC), transient transfection with FuGENE 6
Type: cell-based
Procedure: Compound potency was measured using a cAMP TR-FRET assay. CHO-K1 cells (ATCC) were seeded at a density of 9.75×105 in 6 cm plates, and then on the following day cell media was changed to Opti-Mem I reduced serum media (Gibco), and transfected with a plasmid for expression of the EP2 receptor (the target receptor of interest), using the FuGENE 6 Transfection reagent (Promega). After 6 hours incubation, the cell media was replaced with F12 medium supplemented with 10% FBS and 100 U/ml Pen-Strep. 24 hours after transfection, cells were harvested and seeded at a density of 3000 cells/well in a 384 well plate to perform the cAMP assay, using the LANCE Ultra cAMP assay kit (PerkinElmer). For each test compound of interest, 10 nl/well of serially diluted test compound was added to each well, resulting in a range of 10 serially diluted compound concentrations from 10000 nM to 0.038 nM, with duplicate wells for each concentration. Plates were then centrifuged at 1000 rpm for 1 min, agitated at 600 rpm at R.T. for 2 min, and incubated at 25° C. for 5 min. The reference agonist, prostaglandin E2 (MCE), was added to each well at the appropriate concentration to reach its EC80 value. Plates were then centrifuged at 1000 rpm for 1 min, agitated at 600 rpm at R.T. for 2 min, and incubated at 25° C. for 30 min. To measure levels of cAMP, 5 μl/well of Eu-cAMP working solution and 5 μl/well of Ulight-anti-cAMP working solution were added to each well, and the plate was centrifuged at 1000 rpm for 1 min, agitated at 600 rpm at R.T. for 2 min, and incubated at 25° C. for 15 min. Levels of TR-FRET fluorescence were measured in each well using an EnVision microplate reader (excitation wavelength=337 nm and emission wavelength=615 and 665 nm). A dose-response curve was prepared by plotting percent inhibition for each compound concentration, and then IC50 was calculated by fitting a curve to the plotted values and extrapolating the IC50 concentration. […] Potency data is grouped into categories of AA (IC50<100 nM); A (IC50=100 to 500 nM); B (IC50=500 nM to […]); C (IC50=1 μM to 5 μM); and D (IC50>5 μM).

T1 sequence (P43116 whole entry): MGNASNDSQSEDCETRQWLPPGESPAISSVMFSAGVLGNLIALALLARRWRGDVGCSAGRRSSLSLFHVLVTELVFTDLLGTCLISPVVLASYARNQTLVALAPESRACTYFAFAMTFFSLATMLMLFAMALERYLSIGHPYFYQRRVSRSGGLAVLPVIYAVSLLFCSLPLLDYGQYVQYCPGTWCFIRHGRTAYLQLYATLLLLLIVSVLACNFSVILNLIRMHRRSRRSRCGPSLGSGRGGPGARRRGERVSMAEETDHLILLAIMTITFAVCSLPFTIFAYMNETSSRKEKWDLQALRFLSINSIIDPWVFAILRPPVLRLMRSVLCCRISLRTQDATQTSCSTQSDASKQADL

| IC50 [nM] | Compound |
| --- | --- |
| > 5000 | COc1ccc(C(=O)N2CCC(COc3ccc(-c4ccc(C#N)cc4)cc3)(S(=O)(=O)NS(C)(=O)=O)C2)cc1 (stereo not shown) [I-10, 3-(((4′-cyano-[1,1′-biphenyl]-4-yl)oxy)methyl)-1-(4-methoxybenzoyl)-N-(methylsulfonyl)pyrrolidine-3-sulfonamide] |
| > 5000 | COc1ccc(C(=O)N2CCC(COc3ccc(C45CC(C(=O)O)(C4)C5)cc3)(C(=O)O)C2)cc1 (stereo not shown) [I-11, 3-((4-(3-carboxybicyclo[1.1.1]pentan-1-yl)phenoxy)methyl)-1-(4-methoxybenzoyl)pyrrolidine-3-carboxylic acid] |

Same assay, conditions: Table (V), EP2 antagonism, CHO-K1 cells expressing EP2, PGE2 at EC80

| IC50 [nM] | Compound |
| --- | --- |
| 100 to 500 | Cn1ncc(CN2CCOc3c(Cl)cc(-n4ccc5cc(F)ccc54)cc3C2)cc1=O [II-32, 5-((9-chloro-7-(5-fluoro-1H-indol-1-yl)-2,3-dihydrobenzo[f][1,4]oxazepin-4(5H)-yl)methyl)-2-methylpyridazin-3(2H)-one] |
| 100 to 500 | N#CCc1ncc(CN2CCOc3c(Cl)cc(-n4ccc5cc(F)ccc54)cc3C2)cn1 [II-17, 2-(5-((9-chloro-7-(5-fluoro-1H-indol-1-yl)-2,3-dihydrobenzo[f][1,4]oxazepin-4(5H)-yl)methyl)pyrimidin-2-yl)acetonitrile] |
| 500 to 1000 | Cc1nc(=O)[nH]c(C)c1CN1CCOc2c(Cl)cc(-n3ccc4cc(F)ccc43)cc2C1 [II-24, 5-((9-chloro-7-(5-fluoro-1H-indol-1-yl)-2,3-dihydrobenzo[f][1,4]oxazepin-4(5H)-yl)methyl)-4,6-dimethylpyrimidin-2(1H)-one] |
| 100 to 500 | Nc1ncc(CN2CCOc3c(Cl)cc(-n4ccc5cc(F)ccc54)cc3C2)c(N)n1 [II-11, 5-((9-chloro-7-(5-fluoro-1H-indol-1-yl)-2,3-dihydrobenzo[f][1,4]oxazepin-4(5H)-yl)methyl)pyrimidin-2,4-diamine] |
| > 5000 | COc1ncc(CN2CCOc3c(Cl)cc(N4CCN(C)c5cc(F)ccc54)cc3C2)cn1 [II-3, 9-chloro-7-(6-fluoro-4-methyl-3,4-dihydroquinoxalin-1(2H)-yl)-4-((2-methoxypyrimidin-5-yl)methyl)-2,3,4,5-tetrahydrobenzo[f][1,4] oxazepine] |
| < 100 | Fc1ccc2c(ccn2-c2cc(Cl)c3c(c2)CN(Cc2cnc(-c4nnn[nH]4)nc2)CCO3)c1 [II-22, 4-((2-(1H-tetrazol-5-yl)pyrimidin-5-yl)methyl)-9-chloro-7-(5-fluoro-1H-indol-1-yl)-2,3,4,5-tetrahydrobenzo[f][1,4]oxazepine] |
| 500 to 1000 | COc1ncncc1CN1CCOc2c(Cl)cc(-n3ccc4cc(F)ccc43)cc2C1 [II-29, 9-chloro-7-(5-fluoro-1H-indol-1-yl)-4-((4-methoxypyrimidin-5-yl)methyl)-2,3,4,5-tetrahydrobenzo[f][1,4]oxazepine] |
| 100 to 500 | Fc1ccc2c(ccn2-c2cc(Cl)c3c(c2)CN(Cc2cncnc2)CCO3)c1 [II-9, 9-chloro-7-(5-fluoro-1H-indol-1-yl)-4-(pyrimidin-5-ylmethyl)-2,3,4,5-tetrahydrobenzo[f][1,4] oxazepine] |
| < 100 | O=c1ncc(CN2CCOc3c(Cl)cc(-n4ncc5cc(F)ccc54)cc3C2)c[nH]1 [II-44, 5-((9-chloro-7-(5-fluoro-1H-indazol-1-yl)-2,3-dihydrobenzofuran[f][1,4]oxazepin-4(5H)-yl)methyl)pyrimidin-2(1H)-one] |
| < 100 | Fc1ccc2c(-c3cc(Cl)c4c(c3)CN(Cc3cnc(-c5nnn[nH]5)nc3)CCO4)coc2c1 [II-43, 4-((2-(1H-tetrazol-5-yl)pyrimidin-5-yl)methyl)-9-chloro-7-(6-fluorobenzofuran-3-yl)-2,3,4,5-tetrahydrobenzo[f][1,4]oxazepine] |
| 500 to 1000 | COCCc1ncc(CN2CCOc3c(Cl)cc(-n4ccc5cc(F)ccc54)cc3C2)cn1 [II-20, 9-chloro-7-(5-fluoro-1H-indol-1-yl)-4-((2-(2-methoxyethyl)pyrimidin-5-yl)methyl)-2,3,4,5-tetrahydrobenzo[f][1,4]oxazepine] |
| < 100 | CCOC(=O)c1ncc(CN2CCOc3c(Cl)cc(-n4ccc5c(F)c(F)ccc54)cc3C2)cn1 [II-74, ethyl 5-((9-chloro-7-(4,5-difluoro-1H-indol-1-yl)-2,3-dihydrobenzo[f][1,4]oxazepin-4(5H)-yl)methyl)pyrimidine-2-carboxylate] |
| 500 to 1000 | Nc1cc(CN2CCOc3c(Cl)cc(-n4ccc5cc(F)ccc54)cc3C2)cnn1 [II-23, 5-((9-chloro-7-(5-fluoro-1H-indol-1-yl)-2,3-dihydrobenzo[f][1,4]oxazepin-4(5H)-yl)methyl)pyridazin-3-amine] |
| 500 to 1000 | COc1ncc(CN2CCOc3c(Cl)cc(-n4cnc5cc(F)ccc54)cc3C2)cn1 [II-49, 9-chloro-7-(5-fluoro-1H-benzo[d]imidazol-1-yl)-4-((2-methoxypyrimidin-5-yl)methyl)-2,3,4,5-tetrahydrobenzo[f][1,4]oxazepine] |
| 1000 to 5000 | Fc1ccc2c(ccn2-c2cc(Cl)c3c(c2)CN(Cc2cnc4[nH]ncc4c2)CCO3)c1 [II-31, 4-((1H-pyrazolo[3,4-b]pyridin-5-yl)methyl)-9-chloro-7-(5-fluoro-1H-indol-1-yl)-2,3,4,5-tetrahydrobenzo[f][1,4]oxazepine] |
| 100 to 500 | COC(=O)c1ccc(CN2CCOc3c(Cl)cc(-n4ccc5cc(F)ccc54)cc3C2)cn1 [II-19, methyl 5-((9-chloro-7-(5-fluoro-1H-indol-1-yl)-2,3-dihydrobenzo[f][1,4]oxazepin-4(5H)-yl)methyl)picolinate] |
| 100 to 500 | Fc1ccc2c(ccn2-c2cc(Cl)c3c(c2)CN(Cc2cnc4[nH]ccc4c2)CCO3)c1 [II-27, 4-((1H-pyrrolo[2,3-b]pyridin-5-yl)methyl)-9-chloro-7-(5-fluoro-1H-indol-1-yl)-2,3,4,5-tetrahydrobenzo[f][1,4]oxazepine] |
| 1000 to 5000 | O=c1ncc(CN2CCOc3c(Cl)cc(-n4ccc5cc(F)c(F)cc54)cc3C2)c[nH]1 [II-4, 5-((9-chloro-7-(5,6-difluoro-1H-indol-1-yl)-2,3-dihydrobenzo[f][1,4]oxazepin-4(5H)-yl)methyl)pyrimidin-2(1H)-one] |
| < 100 | Fc1ccc2c(ccn2-c2cc(Cl)c3c(c2)CN(Cc2cnc(-c4nnn[nH]4)nc2)CCO3)c1F [II-42, 4-((2-(1H-tetrazol-5-yl)pyrimidin-5-yl)methyl)-9-chloro-7-(4,5-difluoro-1H-indol-1-yl)-2,3,4,5-tetrahydrobenzo[f][1,4]oxazepine] |
| < 100 | O=c1ncc(CN2CCOc3c(Cl)cc(-c4coc5cc(F)ccc45)cc3C2)c[nH]1 [II-38, 5-((9-chloro-7-(6-fluorobenzofuran-3-yl)-2,3-dihydrobenzo[f][1,4]oxazepin-4(5H)-yl)methyl)pyrimidin-2(1H)-one] |
| < 100 | O=c1ncc(CN2CCOc3c(Cl)cc(-c4csc5cc(F)ccc45)cc3C2)c[nH]1 [II-47, 5-((9-chloro-7-(6-fluorobenzo[b]thiophen-3-yl)-2,3-dihydrobenzo[f][1,4]oxazepin-4(5H)-yl)methyl)pyrimidin-2(1H)-one] |
| < 100 | CS(=O)(=O)NC(=O)c1ncc(CN2CCOc3c(Cl)cc(-n4ccc5cc(F)ccc54)cc3C2)cn1 [II-25, 5-((9-chloro-7-(5-fluoro-1H-indol-1-yl)-2,3-dihydrobenzo[f][1,4]oxazepin-4(5H)-yl)methyl)-N-(methylsulfonyl)pyrimidine-2-carboxamide] |
| 1000 to 5000 | CS(=O)(=O)Nc1ncc(CN2CCOc3c(Cl)cc(-n4ccc5cc(F)ccc54)cc3C2)cn1 [II-13] |

Reference: patent US20260234130A1, “EP2 Antagonist Compounds” (Reservoir Neuroscience, Inc., priority 2022, published 2026)
